The source of these data is patent US4883800A, “Quinazoline derivatives and process for their production” (Fujisawa Pharmaceutical Co., Ltd., priority 1985, dated 1989).

The target in one assay is T1, aldose reductase (Oryctolagus cuniculus, UniProt P15122).
T1 construct: The supernatant was dialyzed against 2 liters of 0.05M of saline solution and the dialyzed solution was used as the enzyme solution; from tissue; host or cells: rabbit eye lens, 10,000 G supernatant of homogenate, dialyzed
Briefly: Enzymatic assay method: aldose reductase inhibition (in vitro test). In kind it is biochemical. The settings on record: rabbit lens enzyme; D,L-glyceraldehyde, NADPH; 35° C., 2 minutes; pH 6.2 buffer; read-out: IC50: concentration at which 50% of the aldose reductase activity is inhibited. The procedure: (1) Enzymatic assay method:
0.5 M Phosphate buffer (pH 6.2)
2.0 M Lithium sulfate 0.2 ml
The compound of this invention mentioned
(dissolved in physiological saline
Enzyme solution [aldose reductase solution,
prepared as described below (2)]
60 mM D,L-glyceraldehyde 0.05 ml
2.5 mM Nicotinamide adenine
dinucleotide phosphate (reduced form)
The above reactants were mixed and reacted at 35° C. for 2 minutes and the decrease in amount of NADPH was measured with an Automatic Reaction Rate Analyzer Model LKB-8600 (Trademark, made by LKB Producter A.B.). The enzyme activity at a change in absorbance of 0.001 per minute was taken as unity.
(2) Method for preparing an enzyme solution
Rabbit eyes were enucleated and the lenses were collected. The lenses were homogenized with 3 volumes of distilled water at 4° C. (All the subsequent procedures were also performed at 4° C.) and centrifuged at 10,000 G for 60 minutes. The supernatant was dialyzed against 2 liters of 0.05M of saline solution and the dialyzed solution was used as the enzyme solution.
Each IC50 value (M) represents the concentration of the compounds of this invention at which 50% of the aldose reductase activity is inhibited.

The test system of assay [1] is sorbitol accumulation in sciatic nerve. Briefly: Inhibitory effect of drug on sorbitol accumulation in sciatic nerve (in vivo test). Details: species or system Male Sprague-Dawley rats (streptozotocin-induced diabetic). The settings on record: 32 mg/kg, oral, once a day for five days; 6 hours after final administration; streptozotocin-diabetic rats. The procedure: Inhibitory effect of drug on sorbitol accumulation in sciatic nerve:
Male Sprague-Dawley rats (6 weeks old) were fasted for 24 hours and then made diabetic by the intraperitoneal injection (2 ml/kg) of streptozotocin (75 mg/kg) dissolved in 2 mM citrate buffer (pH 4.5).
Seven days after streptozotocin injection, blood glucose value was measured by taking blood from tail vein. Rats with blood glucose value of >300 mg/dl were used as streptozotocin-induced diabetic animals.
Diabetic animals were divided at random into two groups (group (A) and group (B)).
Drug was suspended in 0.5% aqueous methylcellulose solution and orally administered to each rat in group (A) once a day for five days [hereinafter referred to as drug-treated diabetic rats].
Each of rats in group (B) and of normal rats was given the vehicle (0.5% aqueous methylcellulose solution) [hereinafter referred to as untreated diabetic rats and control rats, respectively].
Six hours after final administration of drug or vehicle, animals were killed and sorbitol content in sciatic nerve was assayed. Inhibitory percent of drug on sorbitol accumulation in sciatic nerve was calculated as follows. [formula]
S: Sorbitol content in sciatic nerve of untreated diabetic rats.
SD : Sorbitol content in sciatic nerve of drug-treated diabetic rats.
N: Sorbitol content in sciatic nerve of control rats.

Turning to `O=C(O)Cn1c(=O)n(Cc2ccc(Cl)c(Cl)c2)c(=O)c2ccccc21` [Compound A, 2-[3-(3,4-Dichlorobenzyl)-1,2,3,4-tetrahydro-2,4-dioxoquinazolin-1-yl]acetic acid], at aldose reductase, the IC50 was found to be 5.4 nM.
On the same count and under the same terms, to `O=C(O)Cn1c(=O)n(Cc2ccc(Br)cc2F)c(=O)c2ccccc21` [Compound B, 2-[3-(4-Bromo-2-fluorobenzyl)-1,2,3,4-tetrahydro-2,4-dioxoquinazolin-1-yl]acetic acid] belongs 4.8 nM; to `COc1ccc2c(=O)n(Cc3ccc(Br)cc3F)c(=O)n(CC(=O)O)c2c1` [Compound C, 2-[3-(4-Bromo-2-fluorobenzyl)-1,2,3,4-tetrahydro-7-methoxy-2,4-dioxoquinazolin-1-yl]acetic acid], 5.4 nM.
For the compound `O=C(O)Cn1c(=O)n(Cc2ccc(I)cc2F)c(=O)c2ccccc21` [Compound D, 2-[3-(2-Fluoro-4-iodobenzyl)-1,2,3,4-tetrahydro-2,4-dioxoquinazolin-1-yl]acetic acid], on aldose reductase, the IC50 stood at 5.3 nM. For the same compound, the “I: Inhibitory percent on sorbitol accumulation in sciatic nerve” value (“I: Inhibitory percent” for short) in assay [1] is recorded as 101%.
For the compound `O=C(O)Cn1c(=O)n(Cc2ccc(Br)cc2F)c(=O)c2ccc(Br)cc21` [Compound E, 2-[7-Bromo-3-(4-bromo-2-fluorobenzyl)-1,2,3,4-tetrahydro-2,4-dioxoquinazolin-1-yl]acetic acid], the IC50 on aldose reductase is 3.1 nM. Further, the “I: Inhibitory percent” value in assay [1] was 103%.
Take `O=C(O)Cn1c(=O)n(Cc2ccc(Br)cc2F)c(=O)c2ccc(Cl)cc21` [Compound F, 2-[3-(4-Bromo-2-fluorobenzyl)-7-chloro-1,2,3,4-tetrahydro-2,4-dioxoquinazolin-1-yl]acetic acid]: the “I: Inhibitory percent” value in assay [1] is given as 99%.
